Results: patent US12661398B2, “Combination of a PD-1 antagonist, a VEGFR/FGFR/RET tyrosine kinase inhibitor and a CBP/beta-catenin inhibitor for treating cancer” (Eisai R&D Management Co., Ltd., priority 2019, dated 2026)

System: mouse Renal cell carcinoma cell line RAG
Assay: Subcutaneous (s.c.) RAG transplantation model, anti-tumor effect of triple combination (Example 1)
Type: in vivo
Conditions: for CR rate: 28 days of administration
Description: An Eagle's minimal essential medium (E-MEM) containing 10% fetal bovine serum (FBS) and penicillin/streptomycin (100 unit/mL each) was used to culture a mouse Renal cell carcinoma cell line RAG (ATCC number: CCL-142). Logarithmic growing cells were collected from flasks using Trypsin-EDTA. The suspension of cells was centrifuged to remove the supernatant. Next, Hanks' Balanced Salt Solution (HBSS) was used to prepare a cell suspension having a concentration of 2.5×10^7 cells/mL. The cell suspension was subcutaneously transplanted at a dose of 0.1 mL on the right lateral side of the body of each of 7-week-old mice (BALB/cAnNCrlCrlj, female, Charles River Laboratories Japan Inc.). Eight (8) days after the transplantation, an electronic digital caliper (Digimatic™ Caliper; Mitutoyo Corporation) was used to measure the short and long diameters of a tumor of interest. The following equations were used to calculate the tumor volume TV and RTV. Tumor Volume TV (mm^3)=Long Diameter (mm)×Short Diameter (mm)×Short Diameter (mm)/2 EQ. 1: Relative Tumor Volume RTV=TV on day n/TV on day1 EQ. 2:
Based on the tumor volumes on the first day of administration, grouping was carried out such that the average values of the tumor volumes were almost the same. A 1 mg/ml solution of lenvatinib was prepared using 3 mM HCl and was orally administered at a dose of 0.2 mL/20 g mouse body weight once daily for 28 days. 0.2 mL of an administration sample containing 1.0 mg/mL of an anti-mouse-PD-1 antibody (Clone: RMP1-14, BioXCell, Catalog #: BE0146), which had been diluted with PBS, was intraperitoneally administered (at a dosage of 200 μg/mouse) twice a week a total of 8 times (day 1, day 4, day 8, day 11, day 15, day 18, day 22, and day 25, with the day of the grouping set to day 1). A 2.5 mg/ml solution of E7386 was prepared using 0.1 M HCl and was orally administered at a dose of 0.2 mL/20 g mouse body weight once daily for 28 days. To the control group, nothing was administered. Each group including 8 mice was used to conduct the experiment. Twice a week (day 1, day 4, day 8, day 11, day 15, day 18, day 22, day 25, and day 29), the respective tumor volumes (TV) were determined for the control group, the lenvatinib administration group, the anti-mouse-PD-1 antibody administration group, lenvatinib+anti-mouse-PD-1 antibody administration group, E7386+lenvatinib administration group and triple combination group. The values obtained by logarithmically transforming the tumor volumes were used to carry out statistical analysis by repeated measured Dunnet's multiple comparison. E7386 is (6S,9aS)-N-benzyl-8-({6-[3-(4-ethylpiperazin-1-yl)azetidin-1-yl]pyridin-2-yl}methyl)-6-(2-fluoro-4-hydroxybenzyl)-4,7-dioxo-2-(prop-2-en-1-yl)hexahydro-2H-pyrazino[2,1-c][1,2,4]triazine-1(6H)-carboxamide.

[1] = Day 1 (day of grouping, first administration), BALB/c mice

Row | Structure (SMILES) | CR rate (BALB/c mice) | tumor volume (TV) [1] | tumor volume (TV) (Day 4, BALB/c mice) | tumor volume (TV) (Day 8, BALB/c mice) | tumor volume (TV) (Day 11, BALB/c mice) | tumor volume (TV) (Day 15, BALB/c mice) | tumor volume (TV) (Day 18, BALB/c mice) | tumor volume (TV) (Day 22, BALB/c mice) | tumor volume (TV) (Day 25, BALB/c mice) | tumor volume (TV) (Day 29, BALB/c mice)
1 | COc1cc2nccc(Oc3ccc(NC(=O)NC4CC4)c(Cl)c3)c2cc1C(N)=O [Lenvatinib, 4-[3-chloro-4-(cyclopropylaminocarbonyl)aminophenoxy]-7-methoxy-6-quinolinecarboxamide] | 0 out of 8 mice | 62 mm^3 | 82 mm^3 | 102 mm^3 | 134 mm^3 | 152 mm^3 | 175 mm^3 | 162 mm^3 | 166 mm^3 | 151 mm^3
2 | C=CCN1CC(=O)N2[C@@H](Cc3ccc(O)cc3F)C(=O)N(Cc3cccc(N4CC(N5CCN(CC)CC5)C4)n3)C[C@@H]2N1C(=O)NCc1ccccc1 [E7386, (6S,9aS)-N-benzyl-8-({6-[3-(4-ethylpiperazin-1-yl)azetidin-1-yl]pyridin-2-yl}methyl)-6-(2-fluoro-4-hydroxybenzyl)-4,7-dioxo-2-(prop-2-en-1-yl)hexahydro-2H-pyrazino[2,1-c][1,2,4]triazine-1(6H)-carboxamide] | 1 out of 8 mice | 62 mm^3 | 93 mm^3 | 148 mm^3 | 210 mm^3 | 301 mm^3 | 408 mm^3 | 588 mm^3 | 723 mm^3 | 923 mm^3
